Here are results for 60 substances from patent publication US20250263437A1, “POLYPEPTIDE FOR REPAIRING SKIN WOUND OR MUCOSAL INJURY, AND APPLICATION THEREOF” (Sichuan Gooddoctor Panxi Pharmaceutical Co., Ltd., priority 2021, published 2025).

Where no end group is shown, it is not given here.

Test [1] has as its system ethanol-induced gastric ulcer model in mice. Kind of test: Anti-ulcer effect on ethanol-induced gastric ulcer model in mice. The class given is in vivo. Particulars: single administration; ulcer inhibition rate of test compound / ulcer inhibition rate of Compound 1. On the procedure:
Experimental animals: Six-week old C57BL/6JGPt male mice, weighing about 20 g/mouse, were selected, with 10 mice in each group, from GemPharmatech (Chengdu) Co., Ltd., animal license number: SCXK (Chuan) 2020-034. After the experimental animals were divided into groups, they were dosed according to Table 5 one day before the experiment. Among the groups, the model group was given 200 μl of pure water, and the other dose groups were given 200 μl of drug solution. After that, all the animals were fasted for 24 h with free access to water. The next day, 1 h after administration, the mice in each group were given 9 μl/g of absolute ethanol by oral gavage for modeling. After 1 h, the animals were sacrificed by cervical dislocation, the gastric cardia was ligated, the pylorus was occluded, and the whole stomach was removed. 1 mL of 1% formaldehyde solution was injected into the gastric lumen via the glandular stomach, the cardia was ligated, and the stomach was taken out and immediately immersed in 1% formaldehyde solution. After soaking for 30 min, the stomach tissue was taken out and cut open along the greater curvature. The content of the stomach was rinsed off with normal saline, the injury of the gastric mucosa in the mice were observed and measured after being laid flat, and the ulcer index and ulcer inhibition rate were calculated; panoramic photos of the stomach were taken; and finally, the gastric tissue sample was immersed in formalin and fixed. Calculation method for ulcer index: If the length of cord-like injury was greater than 1 mm, the length thereof was measured, with 1 point per millimeter; if the width thereof was greater than 1 mm, the score thereof was doubled according to the number of millimeters of the width; and if the length was less than 1 mm, a score of 0.5 was given, and the scores were added up to obtain the ulcer index of the animal. Method of data statistics: the ulcer index was expressed as mean±standard deviation; the ulcer inhibition rate was calculated by using the median value and mean value of the ulcer index in each dosage group and simulation group; and the data were statistically analyzed by means of Excel, and the difference data of the gastric ulcer index were statistically analyzed by means of independent sample T test.

In another test the test system is HaCaT cells. Kind of test: Proliferation of HaCaT cells (CCK8). The class given is cell-based, human. The following applies: 0.2-0.8 μg/mL; 24 h, 48 h and 72 h; 1% serum. On the procedure: Experimental method: Immortalized human keratinocytes (HaCaT cells) was adjusted to a concentration of 1.0×10^5 to 5.0×10^5/mL for passaging, and they were cultured at 37° C. and 5% CO2 for 24-36 h for biological activity detection. The cells were digested with 0.25% trypsin for 5 min, 1640 whole blood culture medium, the volume of which was not less than 1 time of the volume of the trypsin, was added to stop digestion, a cell suspension was collected, centrifuged at 1000 RPM for 3 min, the supernatant was discarded, 2 mL of 1640 whole blood culture medium was added to suspend the cells, 20 μL of the cell suspension was taken and stained with AOPI, the concentration of cells in the suspension was then detected by a cell counter, the suspension was prepared to a concentration of 5×10^4/mL with 1640 culture medium containing serum at a concentration of 10% and inoculated into a 96-well cell culture plate, with 100 μL per well, i.e., 5000 cells/well, and the plate was cultured at 37° C. and 5% CO2 overnight.
After 24 h, the original culture medium was discarded, and 100 μL of polypeptide compound solutions with different concentrations prepared with 1640 culture medium containing serum at a concentration of 1% were added, such that the final concentrations of the polypeptide compounds to be tested were 0.2, 0.4 and 0.8 ug/mL, respectively. In addition, an EGF control group was prepared by adding 100 μL of a recombinant human epidermal growth factor (EGF) solution prepared with 1640 culture medium containing serum at a concentration of 1%, with the final concentration being 100 ng/ml. In the model control group, an equal volume of 1640 culture medium containing serum at a concentration of 1% was added. After culturing at 37° C. and 5% CO2 for 24 h, 48 h and 72 h, the proliferation of the HaCaT cell line was detected by means of CCK8 kit.

Take AEPVPLEAEAKGKAE [Compound 54]: the “Anti-ulcer activity (mean relative ulcer inhibition rate)” value in test [1] was 0.59.

Regarding AMQASLEAEAKGKAE [Compound 29], the “Anti-ulcer activity (mean relative ulcer inhibition rate)” value in test [1] was 1.00.

As to EAEAAGKAE [Compound 61], the “Anti-ulcer activity (mean relative ulcer inhibition rate)” value in test [1] is listed as 0.52.

With EAEAKGK [Compound 46], the “Anti-ulcer activity (mean relative ulcer inhibition rate)” value in test [1] came out at 0.47.

As to EAEAKGKAE [Compound 7], in test [1], the “Anti-ulcer activity (mean relative ulcer inhibition rate)” value worked out at 1.69.

For the substance “Gln-Ala-Ser-Leu (QASL; printed: Gln-Ala-Ser-Leu) [Compound 9]”, the “Anti-ulcer activity (mean relative ulcer inhibition rate)” value in test [1] was determined as 0.59.

In the case of “Glu-Ala-Glu-Ala (EAEA; printed: Glu-Ala-Glu-Ala) [Compound 45]”, in test [1], the “Anti-ulcer activity (mean relative ulcer inhibition rate)” value amounted to 0.50.

Regarding “Gly-Lys-Ala-Glu (GKAE; printed: Gly-Lys-Ala-Glu) [Compound 10]”, in test [1], the “Anti-ulcer activity (mean relative ulcer inhibition rate)” value came out at 0.56.

PAAEPVPLEAEAKGKAE [Compound 55]: in test [1], the “Anti-ulcer activity (mean relative ulcer inhibition rate)” value was 0.20.

As to QASLEAEAKGK [Compound 4], the “Anti-ulcer activity (mean relative ulcer inhibition rate)” value in test [1] amounted to 0.82.

For QASLEAEAKGKAE [Compound 2], the “Anti-ulcer activity (mean relative ulcer inhibition rate)” value in test [1] turned out to be 0.45.

Consider RKDVYEAEAKGKAE [Compound 59], for which the “Anti-ulcer activity (mean relative ulcer inhibition rate)” value in test [1] was found to be 0.48.

As for SAQASLEAEAKGKAE [Compound 16], in test [1], the “Anti-ulcer activity (mean relative ulcer inhibition rate)” value amounted to 0.98.

Regarding SIQASLEAEAKGKAE [Compound 22], the “Anti-ulcer activity (mean relative ulcer inhibition rate)” value in test [1] is reported as 0.81.

Regarding SLQASLEAEAKGKAE [Compound 17], the “Anti-ulcer activity (mean relative ulcer inhibition rate)” value in test [1] amounted to 0.74.

With SMAASLEAEAKGKAE [Compound 21], in test [1], the “Anti-ulcer activity (mean relative ulcer inhibition rate)” value worked out at 0.87.

On to SMEASLEAEAKGKAE [Compound 37], for which the “Anti-ulcer activity (mean relative ulcer inhibition rate)” value in test [1] is listed as 0.22.

For SMQAALEAEAKGKAE [Compound 28], the “Anti-ulcer activity (mean relative ulcer inhibition rate)” value in test [1] turned out to be 0.67.

For SMQASAEAEAKGKAE [Compound 15], the “Anti-ulcer activity (mean relative ulcer inhibition rate)” value in test [1] amounted to 0.72.

With SMQASL [Compound 8], in test [1], the “Anti-ulcer activity (mean relative ulcer inhibition rate)” value is recorded as 0.89.

Regarding SMQASLAAEAKGKAE [Compound 19], in test [1], the “Anti-ulcer activity (mean relative ulcer inhibition rate)” value came out at 0.64.

In the case of SMQASLDAEAKGKAE [Compound 38], the “Anti-ulcer activity (mean relative ulcer inhibition rate)” value in test [1] is on record as 1.38.

SMQASLEAAAKGKAE [Compound 20]: in test [1], the “Anti-ulcer activity (mean relative ulcer inhibition rate)” value is 0.56.

Take SMQASLEADAKGKAE [Compound 39]: in test [1], the “Anti-ulcer activity (mean relative ulcer inhibition rate)” value worked out at 0.83.

For the substance SMQASLEAEAAGKAE [Compound 18], the “Anti-ulcer activity (mean relative ulcer inhibition rate)” value in test [1] is listed as 0.91.

SMQASLEAEAHGKAE [Compound 32]: in test [1], the “Anti-ulcer activity (mean relative ulcer inhibition rate)” value worked out at 0.52.

As to SMQASLEAEAK [Compound 5], in test [1], the “Anti-ulcer activity (mean relative ulcer inhibition rate)” value amounted to 0.84.

As for SMQASLEAEAKAKAE [Compound 56], in test [1], the “Anti-ulcer activity (mean relative ulcer inhibition rate)” value is given as 0.91.

With SMQASLEAEAKGAAE [Compound 26], the “Anti-ulcer activity (mean relative ulcer inhibition rate)” value in test [1] came to 0.56.

Consider SMQASLEAEAKGHAE [Compound 31], for which the “Anti-ulcer activity (mean relative ulcer inhibition rate)” value in test [1] was 0.50.

SMQASLEAEAKGK [Compound 3]: in test [1], the “Anti-ulcer activity (mean relative ulcer inhibition rate)” value turned out to be 0.33.

In the case of SMQASLEAEAKGKAA [Compound 27], the “Anti-ulcer activity (mean relative ulcer inhibition rate)” value in test [1] worked out at 0.51.

As for SMQASLEAEAKGKAD [Compound 23], the “Anti-ulcer activity (mean relative ulcer inhibition rate)” value in test [1] is 0.70.

For SMQASLEAEAKGKAEA [Compound 52], in test [1], the “Anti-ulcer activity (mean relative ulcer inhibition rate)” value is 0.67.

With SMQASLEAEAKGKAEL [Compound 51], the “Anti-ulcer activity (mean relative ulcer inhibition rate)” value in test [1] came out at 0.62.

With SMQASLEAEAKGKAKQD [Compound 53], the “Anti-ulcer activity (mean relative ulcer inhibition rate)” value in test [1] stood at 0.44. The “effect on proliferation of HaCaT cells” value in the test on HaCaT cells is listed as “proliferation-promoting effect”.

Consider SMQASLEAEAKGKAKQE [Compound 58], for which, in test [1], the “Anti-ulcer activity (mean relative ulcer inhibition rate)” value turned out to be 0.52.

Regarding SMQASLEAEAKGKAN [Compound 24], the “Anti-ulcer activity (mean relative ulcer inhibition rate)” value in test [1] is reported as 0.62.

SMQASLEAEAKGKAQ [Compound 13]: the “Anti-ulcer activity (mean relative ulcer inhibition rate)” value in test [1] is reported as 1.02.

SMQASLEAEAKGKAQD [Compound 49]: the “Anti-ulcer activity (mean relative ulcer inhibition rate)” value in test [1] is given as 0.48.

On to SMQASLEAEAKGKAQE [Compound 50], for which the “Anti-ulcer activity (mean relative ulcer inhibition rate)” value in test [1] stood at 0.09.

Turning to SMQASLEAEAKGKSE [Compound 60], the “Anti-ulcer activity (mean relative ulcer inhibition rate)” value in test [1] amounted to 1.03.

With SMQASLEAEAKGRAE [Compound 25], in test [1], the “Anti-ulcer activity (mean relative ulcer inhibition rate)” value is 0.36.

Consider SMQASLEAEAKPKAE [Compound 57], for which the “Anti-ulcer activity (mean relative ulcer inhibition rate)” value in test [1] came out at 1.12. Besides, the “effect on proliferation of HaCaT cells” value in the test on HaCaT cells is “proliferation-promoting effect”.

On to SMQASLEAEARGKAE [Compound 30], for which, in test [1], the “Anti-ulcer activity (mean relative ulcer inhibition rate)” value worked out at 0.33.

For the substance SMQASLEAESKGKAE [Compound 44], the “Anti-ulcer activity (mean relative ulcer inhibition rate)” value in test [1] stood at 0.16.

On to SMQASLEALAKGKAE [Compound 34], for which, in test [1], the “Anti-ulcer activity (mean relative ulcer inhibition rate)” value turned out to be 0.91.

In the case of SMQASLEAQAKGKAE [Compound 36], in test [1], the “Anti-ulcer activity (mean relative ulcer inhibition rate)” value is 0.07.

Consider SMQASLESEAKGKAE [Compound 43], for which the “Anti-ulcer activity (mean relative ulcer inhibition rate)” value in test [1] is recorded as 0.30.

On to SMQASLLAEAKGKAE [Compound 33], for which the “Anti-ulcer activity (mean relative ulcer inhibition rate)” value in test [1] came out at 0.31.

As for SMQASLQAEAKGKAE [Compound 35], the “Anti-ulcer activity (mean relative ulcer inhibition rate)” value in test [1] was 0.57.

Regarding SMQASLQAQAKGKAE [Compound 14], in test [1], the “Anti-ulcer activity (mean relative ulcer inhibition rate)” value is on record as 0.49.

With SMQASVEAEAKGKAE [Compound 42], the “Anti-ulcer activity (mean relative ulcer inhibition rate)” value in test [1] is reported as 0.84.

Turning to SMQATLEAEAKGKAE [Compound 41], the “Anti-ulcer activity (mean relative ulcer inhibition rate)” value in test [1] came to 0.92.

STQASLEAEAKGKAE [Compound 48]: the “Anti-ulcer activity (mean relative ulcer inhibition rate)” value in test [1] stood at 1.19.

Take SVQASLEAEAKGKAE [Compound 12]: the “Anti-ulcer activity (mean relative ulcer inhibition rate)” value in test [1] was 0.68.

Regarding “Ser-Met (O)-Gln-Ala-Ser-Leu-Glu-Ala-Glu-Ala-Lys-Gly-Lys-Ala-Glu [Compound 11]”, in test [1], the “Anti-ulcer activity (mean relative ulcer inhibition rate)” value is on record as 1.08.

On to TASTLEAEAKGKAE [Compound 47], for which, in test [1], the “Anti-ulcer activity (mean relative ulcer inhibition rate)” value was 0.61.

In the case of TMQASLEAEAKGKAE [Compound 40], the “Anti-ulcer activity (mean relative ulcer inhibition rate)” value in test [1] was found to be 0.18.

Teprenone [reference compound]: the “Anti-ulcer activity (mean relative ulcer inhibition rate)” value in test [1] is listed as 0.5.
